{"source": "patent US20060147566A1", "about": "“Use of physiologically active fatty acids” (priority 2004, published 2006)", "origin": "cited, not measured here", "system": "pruritus", "conditions": "known from clinical studies; acyl salicylate prior art"}
{"smiles": "CC(=O)Oc1ccccc1C(=O)O", "note": "[aspirin]", "values": [{"measurement": "significance for the treatment of pruritus", "value": "about 50%"}]}
